How the values were obtained:
HepG2 = assay: Cell proliferative assay (MTT), HepG2; assay type: cell-based; conditions: Homo sapiens, 72 h incubation, read-out: IC50s HepG2
Method in brief: (§1)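 Cytotoxicity is determined by MTT assay after 72 h of compound treatment at multiple doses. The IC50 is derived from dose-response curves and reported as mean±SEM over at least three independent runs.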

SW620 = assay: Cell proliferative assay (MTT), SW620; assay type: cell-based; conditions: Homo sapiens, SW-620, 72 h incubation, read-out: IC50s SW620
Method in brief: as §1

HT29 = assay: Cell proliferative assay (MTT), HT29; assay type: cell-based; conditions: Homo sapiens, HT-29, 72 h incubation, read-out: IC50s HT29
Method in brief: as §1

K562 = assay: Cell proliferative assay (MTT), K562; assay type: cell-based; conditions: Homo sapiens, 72 h incubation, read-out: IC50s K562
Method in brief: as §1

HCT116 = assay: Cell proliferative assay (MTT), HCT116; assay type: cell-based; conditions: Homo sapiens, HCT-116, 72 h incubation, read-out: IC50s HCT116
Method in brief: as §1

A549 cells = assay: Human lung cancer A549 xenograft; assay type: in vivo, Balbc mice; conditions: 5, 10 and 20 mg/kg intravenous once three days for eight times; vs control P<0.01
Description: (3) In Vivo Anti-Tumor Activity of SKLBC-9 on Human Lung Cancer A549 Xenograft
Six-week-old female mice were obtained from Chinese Academy of Medical Science (Beijing, China). A549 cells (5×10^6 in 100 μl saline) were injected subcutaneously into the right flanks of Balbc mice. When the tumor reached about 100 mm^3, mice were selected and randomly divided into five groups including control, cisplatin (1.5 mg/kg) and SKLBC-9 (5,10,20 mg/kg). The animals were intravenous injection with SKLBC-9 (5, 10 and 20 mg/kg) or vehicle once three days for eight times. Tumor burden was measured every 2 or 3 days with a caliper (calculated volume [mm^3]=n/6× length×width×width). After treatment, mice were killed and tumors were collected and weighted.

SPC-A1 cells = assay: Human lung cancer SPC-A1 xenograft; assay type: in vivo, Balb/c nude mice; conditions: 10, 20 mg/kg intravenous every three days for eight times; vs vehicle control
Description: (4) In Vivo Anti-Tumor Activity of SKLBC-9 on Human Lung Cancer SPC-A1 Xenograft
Six-week-old Balb/c nude mice were obtained from Chinese Academy of Medical Science (Beijing, China). SPC-A1 cells (5×10^6 in 100 μl saline) were injected subcutaneously into the right flanks of the mice. 14 days after cell injection, forty mice were selected and randomly divided into four groups including control, cisplatin (1.5 mg/kg) and SKLBC-9 (10, 20 mg/kg). The animals were intravenously injected with SKLBC-9 or vehicle every three days for eight times. Tumor burden and animal body weight was measured every 2 or 3 days. The survival rate was also recorded. After treatment, mice were killed and tumors were collected and weighted.

tumor cells = assay: Cell proliferative assay (MTT), summary over tumor cells; assay type: cell-based; conditions: summary in words of Table 1; colon, liver, leukemia lines
Description: The synthesized compounds were evaluated for their cytotoxin activity against suspended tumor cells. These cells were seeded on 96-well plates and incubated for 24 h. Selected compounds were added at various doses and incubated for 72 h, MTT was then added, and the absorbance was measured at a wavelength of 590 nm. IC50 values are expressed as the mean±SEM from the dose-response curves of at least three independent experiments.

- IC50 (HepG2): 0.73 µM
- IC50 (SW620): 0.57 µM
- IC50 (HT29): 1.87 µM
- IC50 (K562): 3.5 µM
- IC50 (HCT116): 1.63 µM
SMILES: COc1ccc(C(=O)/C=C/c2ccc(N(C)C)cc2)c2c1C=CC(C)(C)O2 [SKLBC-9, (E)-3-(4-(dimethylamino)phenyl)-1-(5-methoxy-2,2-dimethyl-2H-chromen-8-yl)prop-2-en-1-one]
- tumor growth (A549 cells): suppress tumor growth
- average tumor weight (SPC-A1 cells): significantly lower
- growth of tumor (SPC-A1 cells): significantly inhibited
- inhibitory activity against tumor cells (tumor cells): better inhibitory activity
